# From US20130109714A1, “NEURODEGENERATIVE DISEASE THERAPEUTIC AGENT” (National University Corporation Hokkaido University, priority 2010, published 2013)
# What was measured:
# [1] = tested on: mouse injected with 6-OHDA to the unilateral (left) midbrain; test: 6-OHDA Parkinson's disease model, methamphetamine-induced rotational behavior; assay type: in vivo; details: administered together with methamphetamine, up to 7 days after administration
# Description: To evaluate effects of a DJ-1 bound compound on Parkinson's disease in vivo, 6-OHDA was stereotactically injected to the unilateral (left) midbrain of a mouse. Then, the DJ-1 bound compound (No. 23) was administered together with methamphetamine. Here, administration of methamphetamine to an animal induces ipsilateral movement relative to the injection site. Accordingly, by the administration of methamphetamine to a mouse, a rotational behavior is observed.
# [2] = tested on: primary nerve cells of the rat ventral midbrain; test: H2O2-induced cell death in primary nerve cells, MTT assay; assay type: cell-based; details: 1 μM compound for 20 h, then 200 μM H2O2 for 3 h
# Description: From germinal cells of a rat at 17-19 days pregnant, primary nerve cells of the rat ventral midbrain were prepared. To evaluate presence of dopamine-producing neurons in a cell culture, the cell culture was immunostained with anti-NeuN antibody and anti-TH antibody to identify each of whole neurons and dopamine-producing neurons, and cell nuclei were stained with DAPI.
# Therefore, it was clarified that No. 23 provides a resistance against nerve cell death induced by oxidative stress.
# [3] = tested on: cerebral stroke model rat; details: in vivo
structure (smiles),measurement,setting,value
COc1cc(C(=O)Nc2ccc(-c3cn4cccc(C)c4n3)cc2)cc(OC)c1OC [No. 23],"rotational behavior, number of rotations (FIGS. 15 and 16)",[1],significantly suppressed
same,cell death caused by hydrogen peroxide in primary nerve cells (FIG. 12),[2],no cell death was observed
same,"cell death in brain, TTC staining, infarct area and volume (FIGS. 4-7)",[3],significantly suppresses cell death
